Test results taken from ChEMBL document CHEMBL1201862, “PubChem BioAssay data set” (2004).
Active and inactive are the calls of the source.

Experiments:
[1] = molecular target: T1, Acyl-homoserine lactone acylase PvdQ (Pseudomonas aeruginosa (strain LESB58), UniProt Q9I194); test: P. aeruginosa PvdQ acylase inhibitors, dose response, biochemical, fluorescence, plate reader and imaging, cherry-picks (AID 493231)
T1 sequence (Q9I194 whole entry): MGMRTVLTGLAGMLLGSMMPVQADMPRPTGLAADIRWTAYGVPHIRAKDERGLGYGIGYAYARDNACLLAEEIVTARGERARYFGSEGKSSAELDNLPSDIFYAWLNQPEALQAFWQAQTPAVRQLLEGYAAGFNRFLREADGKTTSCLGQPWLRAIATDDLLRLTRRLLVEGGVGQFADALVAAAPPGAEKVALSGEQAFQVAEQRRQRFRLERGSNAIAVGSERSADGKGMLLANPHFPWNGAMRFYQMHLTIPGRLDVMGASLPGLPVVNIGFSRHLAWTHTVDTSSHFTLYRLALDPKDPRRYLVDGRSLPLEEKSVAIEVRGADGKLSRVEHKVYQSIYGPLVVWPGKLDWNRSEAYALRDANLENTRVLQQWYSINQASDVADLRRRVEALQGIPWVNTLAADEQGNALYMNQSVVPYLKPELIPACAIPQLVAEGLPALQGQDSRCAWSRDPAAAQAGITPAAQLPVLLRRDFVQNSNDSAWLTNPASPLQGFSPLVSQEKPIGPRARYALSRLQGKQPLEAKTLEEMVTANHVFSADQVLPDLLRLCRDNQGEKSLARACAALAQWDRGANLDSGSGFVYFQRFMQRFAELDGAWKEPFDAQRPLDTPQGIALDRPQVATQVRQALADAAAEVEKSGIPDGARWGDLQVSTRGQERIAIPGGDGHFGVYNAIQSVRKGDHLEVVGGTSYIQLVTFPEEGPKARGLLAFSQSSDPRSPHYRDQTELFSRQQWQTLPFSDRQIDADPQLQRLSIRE

[2] = test system: HEK293; test: cells; format: functional, cell-based; settings: Homo sapiens
[3] = molecular target: Nuclear receptor subfamily 0 group B member 1 (Homo sapiens, UniProt P51843); test: Luminescence-based cell-based high throughput dose response assay for inhibitors of the orphan nuclear receptor subfamily 0, group B, member 1 (DAX1; NR0B1). [Related pubchem assays (depositor defined):AID504766, AID504790]; format: functional
Nuclear receptor subfamily 0 group B member 1, sequence (P51843 whole entry): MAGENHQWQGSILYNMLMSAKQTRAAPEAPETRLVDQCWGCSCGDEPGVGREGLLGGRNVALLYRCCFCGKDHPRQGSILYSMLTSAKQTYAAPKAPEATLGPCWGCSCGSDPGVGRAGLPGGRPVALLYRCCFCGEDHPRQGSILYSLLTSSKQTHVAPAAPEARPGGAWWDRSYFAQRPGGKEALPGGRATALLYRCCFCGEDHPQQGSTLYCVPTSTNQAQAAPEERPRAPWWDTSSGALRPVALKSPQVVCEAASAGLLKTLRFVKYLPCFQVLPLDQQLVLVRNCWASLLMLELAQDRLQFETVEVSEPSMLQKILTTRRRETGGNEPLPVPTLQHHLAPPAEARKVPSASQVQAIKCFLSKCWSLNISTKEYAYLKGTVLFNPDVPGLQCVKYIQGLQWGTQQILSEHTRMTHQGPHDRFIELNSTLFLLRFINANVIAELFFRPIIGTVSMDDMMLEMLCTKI

[4] = molecular target: T2, Rac GTPase-activating protein 1 (Homo sapiens, UniProt Q9H0H5); test: MgcRacGAP GTPase-activating activity inhibitors, confirmation, biochemical, ADP Hunter fluorescence, primary and confirmatory (AID 624330); format: functional
T2 sequence (Q9H0H5 whole entry): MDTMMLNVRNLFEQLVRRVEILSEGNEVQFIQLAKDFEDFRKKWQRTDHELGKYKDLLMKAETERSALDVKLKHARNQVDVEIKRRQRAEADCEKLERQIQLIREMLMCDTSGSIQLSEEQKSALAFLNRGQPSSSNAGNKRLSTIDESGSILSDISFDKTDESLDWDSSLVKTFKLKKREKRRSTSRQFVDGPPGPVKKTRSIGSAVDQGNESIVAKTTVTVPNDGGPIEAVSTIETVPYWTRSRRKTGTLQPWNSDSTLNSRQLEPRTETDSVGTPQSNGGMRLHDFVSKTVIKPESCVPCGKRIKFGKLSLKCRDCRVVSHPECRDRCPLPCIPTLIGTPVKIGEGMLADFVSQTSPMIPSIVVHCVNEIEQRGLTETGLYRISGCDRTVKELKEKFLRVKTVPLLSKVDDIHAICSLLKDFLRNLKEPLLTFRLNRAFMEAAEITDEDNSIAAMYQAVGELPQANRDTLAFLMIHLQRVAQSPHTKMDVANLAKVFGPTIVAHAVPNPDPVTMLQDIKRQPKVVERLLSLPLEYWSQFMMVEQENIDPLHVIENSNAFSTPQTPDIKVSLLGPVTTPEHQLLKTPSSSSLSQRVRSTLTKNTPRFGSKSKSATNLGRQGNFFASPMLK

[5] = molecular target: Luciferin 4-monooxygenase (Photinus pyralis, UniProt P08659); test: firefly luciferase enzyme inhibitors, dose response, biochemical, luminescence (AID 1891)
Luciferin 4-monooxygenase, sequence (P08659 whole entry): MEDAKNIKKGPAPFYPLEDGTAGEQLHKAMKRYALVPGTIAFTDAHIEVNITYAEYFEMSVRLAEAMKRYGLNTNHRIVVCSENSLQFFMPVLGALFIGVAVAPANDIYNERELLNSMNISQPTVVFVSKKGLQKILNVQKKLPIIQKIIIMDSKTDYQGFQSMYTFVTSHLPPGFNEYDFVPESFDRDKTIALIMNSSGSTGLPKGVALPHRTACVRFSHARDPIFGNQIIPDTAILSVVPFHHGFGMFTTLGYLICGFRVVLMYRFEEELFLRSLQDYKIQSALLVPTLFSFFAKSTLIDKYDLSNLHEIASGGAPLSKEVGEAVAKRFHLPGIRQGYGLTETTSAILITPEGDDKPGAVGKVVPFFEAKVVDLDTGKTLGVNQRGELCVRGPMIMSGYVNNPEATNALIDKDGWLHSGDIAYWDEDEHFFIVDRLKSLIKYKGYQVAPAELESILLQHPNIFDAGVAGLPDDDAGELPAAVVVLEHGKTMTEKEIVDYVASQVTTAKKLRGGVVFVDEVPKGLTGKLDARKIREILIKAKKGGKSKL

[6] = Luminescence Cell-Based Dose Confirmation HTS to Identify Inhibitors of Platelet Dense Granule Release. [Related pubchem assays: 1663 (Primary HTS), 1678 (Summary of Project)]; format: functional
[7] = test system: HeLa; test: HeLa cell cytotoxicity, dose response, cytotoxicity control for MITF activator project, CellTiter-Glo luminescence, cherry-pick samples (AID 540259); format: functional, cell-based; settings: Homo sapiens
[8] = test system: Escherichia coli; test: microbe, parasite or virus in culture

CCOc1ccc(CNC2CCCc3ccccc32)cc1 (stereo unspecified)
AC50 [1]: 12.3 µM (active) | IC50 [2]: > 67.5 µM (inactive) | IC50 [3]: > 67.5 µM (inactive) | IC50 [4]: 202 µM (active)

O=C(COc1ccc(Cl)cc1Cl)c1ccc[nH]1
IC50 [2]: > 67.6 µM (inactive) | IC50 [3]: > 67.6 µM (inactive)

COc1ccc(/C=N/Nc2ccccn2)cc1O
EC50 [5]: 17.6 µM (active) | EC50 [6]: 12.5 µM (active) | AC50 [7]: 282 µM (active) | IC50 [4]: 70.2 µM (active) | AC50 [8]: 31.1 µM (active)
